{
  "source": "patent US20240092831A1",
  "about": "“Proteasome Inhibitors” (Mayo Foundation for Medical Education and Research, priority 2019, published 2024)",
  "key": {"[1]": {"system": "bortezomib sensitive cells", "test": "Cell viability (MTS/CellTiter Glo), bortezomib sensitive multiple myeloma cells", "assay_type": "cell-based", "procedure": "(§1) Methods: CD138+ cells from multiple myeloma patients, bortezomib-sensitive multiple myeloma cell lines (OPM2, KMS11 and U266) and their isogenic bortezomib resistant subclones were used in experiments. Fluorogenic peptide substrates were used to measure β-subunit-specific enzymatic activity. Gene disruption was conducted using 2 different shRNA hairpins for PSMB5 (β5) and PSMB9 ([…]). […] HT12v4 gene expression array and NanoString mRNA quantification were used for gene expression profiling (GEP), followed by qPCR for confirmation. Novel dual β5-β1i proteasome inhibitors were synthesized and tested in vitro. Apoptosis was determined by annexin-V/[…] staining and MTS/CellTiter Glo assay used to determine cell viability."}, "[2]": {"system": "bortezomib resistant cells", "test": "Cell viability (MTS/CellTiter Glo), bortezomib resistant multiple myeloma cells", "assay_type": "cell-based", "procedure": "as §1"}, "[3]": {"system": "β5", "test": "Proteasome β5 enzyme activity in WM cell lines (fluorogenic substrate)", "assay_type": "cell-based", "details": "comparator", "procedure": "(§2) Methodology: BWCM.1, MWCL-1 and RPCI-WM1 and isogenic PI-resistant subclones were used in experiments. WM cell viability determined by 72 hour CellTiter Glo assay. Proteasome enzyme activity was estimated by fluorogenic substrates specific for β5 and β1. Protein expression was determined by western blotting. Apoptosis was assessed by annexin-V/PI staining.\nResults: Chemical compounds capable of inhibiting enzymatic activity of both β5 and β1 were prepared. […] (FIGS. 2B, 2C). […] In vitro proteasome enzyme activity at the β5 and β1 subunits was examined in all WM cell lines +/−Compound 1 (with bortezomib serving as a comparator)."}, "[4]": {"target": "T1, β1 (Homo sapiens, UniProt P28065)", "T1 construct": "In vitro proteasome enzyme activity at the β5 and β1 subunits was examined in all WM cell lines +/−Compound 1; endogenous in cells; host or cells: BWCM.1 (BCWM.1), MWCL-1, RPCI-WM1 and isogenic bortezomib/PI-resistant subclones", "test": "Proteasome β1 enzyme activity in WM cell lines (fluorogenic substrate)", "assay_type": "cell-based", "details": "comparator", "procedure": "as §2"}, "[5]": {"system": "BCWM.1", "test": "MTS assay, BCWM.1", "assay_type": "cell-based", "details": "BCWM1"}, "[6]": {"system": "BCWM.1/BR", "test": "MTS assay, BCWM.1/BR", "assay_type": "cell-based", "details": "BCWM1, bortezomib-resistant subclone"}, "[7]": {"system": "MWCL.1", "test": "MTS assay, MWCL.1", "assay_type": "cell-based"}, "[8]": {"system": "MWCL.1/BR", "test": "MTS assay, MWCL.1/BR", "assay_type": "cell-based", "details": "bortezomib-resistant subclone"}, "[9]": {"system": "RPCI.WM1", "test": "MTS assay, RPCI.WM1", "assay_type": "cell-based"}, "[10]": {"system": "RPCI.WM1/BR", "test": "MTS assay, RPCI.WM1/BR", "assay_type": "cell-based", "details": "bortezomib-resistant subclone"}, "[11]": {"target": "T2, B1i (Homo sapiens, UniProt P28065)", "T2 construct": "endogenous in cells; host or cells: OPM2 and OPM2/BR multiple myeloma cell lines", "test": "In vitro enzymatic potency of dual-β5/β1i inhibitors (Table 2)", "assay_type": "biochemical", "procedure": "as §1\nThe results were shown for multiple myeloma cell lines (OPM2, OPM2/BR)."}},
  "note": "Like-named read-outs stand apart in the source and are kept apart here. Non-standard residues stand in square brackets, D forms with d. Residues, ends and D or L forms follow the SMILES beside them. ξ: configuration not given here. *: point of attachment. Hydrocinnamoyl = O=C(CCc1ccccc1)*; ξF = NC(Cc1ccccc1)C(=O)O; Cbz = O=C(OCc1ccccc1)*",
  "data": [
    {"smiles": "CC(C)C[C@H](NC(=O)[C@H](Cc1ccccc1)NC(=O)c1cnccn1)B(O)O", "note": "[Bortezomib, bortezomib]", "values": [
      {"measurement": "IC50", "setting": "[1]", "result": 4, "unit": "nM"},
      {"measurement": "IC50", "setting": "[2]; bortezomib resistant cells, before PSMB9 downregulation, read-out: IC50 (shift from)", "result": 235, "unit": "nM"},
      {"measurement": "IC50", "setting": "[2]; bortezomib resistant cells, read-out: Bortezomib IC50", "result": 284, "unit": "nM"},
      {"measurement": "IC50", "setting": "[2]; bortezomib resistant-PSMB9 shRNA transfected cells, read-out: IC50 (shift to)", "result": 108, "unit": "nM"},
      {"measurement": "effect on β5 enzymatic function", "setting": "[3]", "result": "only β5 enzymatic function"},
      {"measurement": "effect on β1 activity", "setting": "[4]", "result": "did not decrease β1 activity"},
      {"measurement": "IC50", "setting": "[5]", "result": 8.6, "unit": "nM"},
      {"measurement": "IC50", "setting": "[6]", "result": 17.6, "unit": "nM"},
      {"measurement": "IC50", "setting": "[7]", "result": 10.2, "unit": "nM"},
      {"measurement": "IC50", "setting": "[8]", "result": 16.7, "unit": "nM"},
      {"measurement": "IC50", "setting": "[9]", "result": 3, "unit": "nM"},
      {"measurement": "IC50", "setting": "[10]", "result": 114, "unit": "nM"}
    ]},
    {"smiles": "CC(C)[C@H](NC(=O)CCc1ccccc1)C(=O)NC(C=O)Cc1ccccc1", "note": "(stereo partly shown) [Compound 1-2] (Hydrocinnamoyl-Val-[ξF]-aldehyde)", "values": [
      {"measurement": "IC50", "setting": "[11]; first column of Table 2", "result": 1, "unit": "µM"},
      {"measurement": "IC50", "setting": "[11]; second column of Table 2", "result": 5, "unit": "µM"}
    ]},
    {"smiles": "CCOC(=O)/C(C#N)=C/C(Cc1ccccc1)NC(=O)[C@@H](NC(=O)OCc1ccccc1)C(C)C", "note": "(stereo partly shown) [Compound 15-2]", "values": [
      {"measurement": "IC50", "setting": "[11]; first column of Table 2", "result": "> 10", "unit": "µM"},
      {"measurement": "IC50", "setting": "[11]; second column of Table 2", "result": 5, "unit": "µM"}
    ]},
    {"smiles": "O=CC(Cc1ccccc1)NC(=O)[C@H](Cc1ccccc1)NC(=O)OCc1ccccc1", "note": "(stereo partly drawn) [Compound 7-2] (Cbz-Phe-[ξF]-aldehyde)", "values": [
      {"measurement": "IC50", "setting": "[11]; first column of Table 2", "result": 5, "unit": "µM"},
      {"measurement": "IC50", "setting": "[11]; second column of Table 2", "result": 5, "unit": "µM"}
    ]},
    {"smiles": "CC(C)C[C@H](NC(=O)OCc1ccccc1)C(=O)NC(C=O)Cc1ccccc1", "note": "(stereo partly drawn) [Compound 6-2] (Cbz-Leu-[ξF]-aldehyde)", "values": [
      {"measurement": "IC50", "setting": "[11]; first column of Table 2", "result": 1, "unit": "µM"},
      {"measurement": "IC50", "setting": "[11]; second column of Table 2", "result": 5, "unit": "µM"}
    ]},
    {"smiles": "CC(C)[C@H](NC(=O)c1ccncc1)C(=O)NC(C=O)Cc1ccccc1", "note": "(stereo partly shown) [Compound 12-2]", "values": [
      {"measurement": "IC50", "setting": "[11]; first column of Table 2", "result": 5, "unit": "µM"},
      {"measurement": "IC50", "setting": "[11]; second column of Table 2", "result": 5, "unit": "µM"}
    ]}
  ]
}
